# Assay results as given in patent US4806532A, “Inhibition of epithelial phosphate transport” (Mayo Foundation for Medical Education and Research, priority 1985, dated 1989).
# Where “and” joins values, the source holds several entries; their conditions need not be identical. Identical values can stand only once. Counter-ions that a name gives are not always drawn.
# How the values were obtained:
# Na-Pi cotransporter = biological target: T1, Na-Pi cotransporter (Rattus norvegicus, UniProt Q06496); test: Reversibility of TPFA inhibition: 32Pi uptake of BBMV after preincubation and washout; type: biochemical
# T1 construct: from tissue; host or cells: rat renal cortex, brush border membrane vesicles
# T1 sequence (Q06496 1-637): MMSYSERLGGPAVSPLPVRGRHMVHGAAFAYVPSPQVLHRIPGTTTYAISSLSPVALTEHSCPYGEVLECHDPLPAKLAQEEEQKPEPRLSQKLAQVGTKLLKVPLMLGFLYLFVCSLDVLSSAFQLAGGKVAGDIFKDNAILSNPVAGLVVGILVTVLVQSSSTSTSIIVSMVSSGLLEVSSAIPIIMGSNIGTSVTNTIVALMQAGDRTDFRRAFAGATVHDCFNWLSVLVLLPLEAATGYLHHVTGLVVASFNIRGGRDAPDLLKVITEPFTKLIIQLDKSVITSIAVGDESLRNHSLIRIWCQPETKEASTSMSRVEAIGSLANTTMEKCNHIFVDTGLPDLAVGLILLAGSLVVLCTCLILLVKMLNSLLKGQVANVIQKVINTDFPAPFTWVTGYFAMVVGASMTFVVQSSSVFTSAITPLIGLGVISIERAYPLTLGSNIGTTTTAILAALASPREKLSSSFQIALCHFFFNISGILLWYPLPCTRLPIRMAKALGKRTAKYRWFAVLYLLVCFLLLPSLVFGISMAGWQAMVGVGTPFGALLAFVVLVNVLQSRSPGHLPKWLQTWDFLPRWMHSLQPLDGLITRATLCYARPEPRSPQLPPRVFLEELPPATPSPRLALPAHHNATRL
# Method: The reversibility of the inhibition of ^32 Pi transport across BBMV by TPFA was explored using the following protocol. […] The suspensions of BBMV were incubated for 10 min at room temperature. At the end of incubation period, incubation mixtures were diluted with 10 ml of ice-cold MTH-medium, resuspended and centrifuged at 35,000×g for 20 min. The supernatant was discarded and BBMV pellet was suspended in MTH-medium and then assayed for Na^+ -gradient-dependent ^32 Pi uptake.
# [1] = tested on: thyroparathyroidectomized (TPTX) rats; test: Urinary excretion of Pi and other electrolytes after TPFA in vivo; design: species or system rat; Phosphate excretion: unit not given here
# Method: Surgically thyroparathyroidectomized (TPTX) rats of 180-220 g body wt (Johnson Laboratories, Chicago, IL) were placed in metabolic cages and were fed 15 g of the low phosphate (P =0.07%) diet (ICN, Cleveland, OH) and 25 ml distilled water per day prior to and throughout the study (J. Clin. Invest. 67, 1347 (1981)). The animals were weighed daily. Urine samples (24-hour period) were collected each day for determination of urine volue, creatinine, Pi, Ca^++, Na^+ and K^+. After stabilization of rats on the low phosphate diet for 4 days, the "experimental" group of rats were injected with TPFA (500 mg/kg b wt) intraperitoneally, divided in two daily doses, while the "control" rats received the vehicle only. TPFA for i.p. injection was dissolved in distilled water and the control animals were injected with the same volume of NaCl solution containing the equimolar amount of Na^+. When appropriate, the results were evaluated statistically using student's t-test for either group or paired comparisons. Values of P >0.05 were considered nonsignificant (NS).
# [2] = Day 1 (baseline), experimental group, TPTX rats
# [3] = Day 2, TPFA 500 mg/kg per day i.p. on day 2 and day 3, TPTX rats
# [4] = Day 3, TPFA 500 mg/kg per day i.p. on day 2 and day 3, TPTX rats
# [5] = Day 4, after TPFA 500 mg/kg per day i.p. on day 2 and day 3, TPTX rats
structure (smiles),measurement,setting,value
"O=C(O)P(=O)(O)O [TPFA, Phosphonoformic acid, trisodium salt hexahydrate]","32Pi uptake 120 min, TPFA-preincubated","Na-Pi cotransporter; BBMV preincubated with 5 mM TPFA 10 min, diluted 1:10, washed, Experiments 1 and 2",326 ± 5 pmoles/mg protein and 293 ± 3 pmoles/mg protein
same,"32Pi uptake 20 sec, TPFA-preincubated","Na-Pi cotransporter; BBMV preincubated with 5 mM TPFA 10 min, diluted 1:10, washed, Experiments 1 and 2, mean ± SEM",1240 ± 25 pmoles/mg protein and 1128 ± 38 pmoles/mg protein
same,rate of Na+-gradient-dependent BBMV uptake of Pi after washout of TPFA by dilution,Na-Pi cotransporter; versus control BBMV not exposed to TPFA,indistinguishable from control BBMV
same,Calcium excretion,[1]; [2],0.3 ± 0.07 mmoles/mg creatinine
same,Potassium excretion,[1]; [2],7.3 ± 1.0 mmoles/mg creatinine
same,Sodium excretion,[1]; [2],6.8 ± 1.1 mmoles/mg creatinine
same,Phosphate excretion,"[1]; Day 1 (baseline, before injections on day 2 and 3), experimental group, TPTX rats on low phosphate diet, relative to creatinine, mean ± SEM of 8-9 rats",11.8 ± 6.0
same,Phosphate excretion,"[1]; Day 2, TPFA 500 mg/kg per day i.p. in two doses on day 2 and day 3, TPTX rats, low phosphate diet, relative to creatinine",30.8 ± 6.6
same,Calcium excretion,[1]; [3],0.2 ± 0.09 mmoles/mg creatinine
same,Potassium excretion,[1]; [3],7.6 ± 1.1 mmoles/mg creatinine
same,Sodium excretion,[1]; [3],8.0 ± 1.1 mmoles/mg creatinine
same,Phosphate excretion,"[1]; Day 3, TPFA 500 mg/kg per day i.p. in two doses on day 2 and day 3, TPTX rats, significantly increased vs Day 1 (P < 0.025)",122.1 ± 37.8
same,Calcium excretion,[1]; [4],0.3 ± 0.2 mmoles/mg creatinine
same,Potassium excretion,[1]; [4],11.8 ± 3.9 mmoles/mg creatinine
same,Sodium excretion,[1]; [4],19.4 ± 11.6 mmoles/mg creatinine
same,Calcium excretion,[1]; [5],0.6 ± 0.5 mmoles/mg creatinine
same,Phosphate excretion,[1]; [5],79.8 ± 46.9
same,Potassium excretion,[1]; [5],12.9 ± 5.3 mmoles/mg creatinine
same,Sodium excretion,[1]; [5],15.1 ± 7.0 mmoles/mg creatinine
same,urinary excretion of Pi (in words),"[1]; TPFA i.p. in two daily doses, TPTX rats on low phosphate diet, FIG. 3",severalfold increase
same,"urinary excretion of Na+, K+ or calcium (in words)","[1]; TPFA i.p. in two daily doses, TPTX rats, same urine samples",did not change
